This assay has as its target T1, Human PIP4K2C (Homo sapiens, UniProt Q8TBX8).
T1 construct: purchased Eurofins DiscoverX 87-0007-1094
T1 sequence (Q8TBX8 1-421): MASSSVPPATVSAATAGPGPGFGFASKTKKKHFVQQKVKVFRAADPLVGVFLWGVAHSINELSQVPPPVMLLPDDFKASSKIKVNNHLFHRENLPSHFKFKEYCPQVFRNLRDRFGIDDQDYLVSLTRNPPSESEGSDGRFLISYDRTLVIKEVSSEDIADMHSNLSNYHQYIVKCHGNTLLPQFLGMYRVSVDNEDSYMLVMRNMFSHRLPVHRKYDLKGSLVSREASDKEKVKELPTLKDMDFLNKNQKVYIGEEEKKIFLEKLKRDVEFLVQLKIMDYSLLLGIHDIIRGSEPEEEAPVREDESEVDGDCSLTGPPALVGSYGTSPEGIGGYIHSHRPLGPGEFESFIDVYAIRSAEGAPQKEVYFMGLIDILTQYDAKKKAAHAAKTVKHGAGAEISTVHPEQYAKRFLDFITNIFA
Description: Enzyme binding assay (KINOMEscan), active site-directed competition binding. Particulars: 11-point dose response, duplicate, top concentration 5 micromolar; read-out: Pip4k2c Kd: IC50. Here is the method:
PIP4K2C binding constants disclosed herein were determined using the proprietary Human PIP4K2C binding assay (Catalog number 87-0007-1094, Eurofins DiscoverX, San Diego, CA). This assay measures active site-directed competition binding to an immobilized ligand (see https://doi.org/10.1038/nbt1068, herein incorporated by reference in its entirety). Experiments were conducted using an 11-point dose response curve, in duplicate, with a top starting concentration of 5 micromolar; the Levenberg-Marquardt algorithm was used to fit a Hill equation to dose-response data to calculate IC50 values (see Table 5).
For the molecule `O=C1CCCN1c1cncc(Nc2ncc(Cl)c(N3CCC[C@@H](c4ccccn4)C3)n2)c1` (single isomer, unassigned) [Compound 124], the IC50 is less than 500 nM.

For `O=C1CCCN1c1cncc(Nc2ncc(Cl)c(N3CCC[C@H](c4ccccn4)C3)n2)c1` (single isomer, unassigned) [Compound 125], the IC50 was less than 500 nM. For `O=C1CCCN1c1cncc(Nc2ncc(Cl)c(N3C(=O)CC[C@H]3c3ccccc3)n2)c1` [29, Enant A], the IC50 was less than 500 nM. As for `O=C1CCCN1c1cncc(Nc2ncc(Cl)c(N3C(=O)CC[C@@H]3c3ccccc3)n2)c1` [29, Enant B], the IC50 fell in the range of 500 to 1000 nM. As to `O=C1N(c2cncc(Nc3ncc(Cl)c(-c4cccc(-c5ccccc5)c4)n3)c2)CCC12CCNCC2` [Compound 1, 2-(5-((4-([1,1′-biphenyl]-3-yl)-5-chloropyrimidin-2-yl)amino)pyridin-3-yl)-2,8-diazaspiro[4.5]decan-1-one], the IC50 is less than 500 nM. As for `O=C1CCCN1c1cncc(Nc2ncc(Cl)c(-c3cccc(-c4ccc(Cl)c(Cl)c4)c3)n2)c1` [Compound 2, 1-(5-((5-chloro-4-(3′,4′-dichloro-[1,1′-biphenyl]-3-yl)pyrimidin-2-yl)amino)pyridin-3-yl)pyrrolidin-2-one], the IC50 was less than 500 nM. Next, `Cc1ccc(-c2cccc(-c3nc(Nc4cncc(N5CCCC5=O)c4)ncc3Cl)c2)cc1` [Compound 3, 1-(5-((5-chloro-4-(4′-methyl-[1,1′-biphenyl]-3-yl)pyrimidin-2-yl)amino)pyridin-3-yl)pyrrolidin-2-one]: less than 500 nM. Next, `O=C1CCCN1c1cncc(Nc2ncc(Cl)c(-c3cccc(-c4ccc(Cl)cc4)c3)n2)c1` [Compound 4, 1-(5-((5-chloro-4-(4′-chloro-[1,1′-biphenyl]-3-yl)pyrimidin-2-yl)amino)pyridin-3-yl)pyrrolidin-2-one]: less than 500 nM; `COc1ccc(-c2cccc(-c3nc(Nc4cncc(N5CCCC5=O)c4)ncc3Cl)c2)cc1` [Compound 5, 1-(5-((5-chloro-4-(4′-methoxy-[1,1′-biphenyl]-3-yl)pyrimidin-2-yl)amino)pyridin-3-yl)pyrrolidin-2-one]: less than 500 nM; `O=C1CCCN1c1cncc(Nc2ncc(Cl)c(-c3ccc(Cl)c(-c4ccccc4)c3)n2)c1` [Compound 6, 1-(5-((5-chloro-4-(6-chloro-[1,1′-biphenyl]-3-yl)pyrimidin-2-yl)amino)pyridin-3-yl)pyrrolidin-2-one]: less than 500 nM. `Cc1ccc(-c2nc(Nc3cncc(N4CCCC4=O)c3)ncc2Cl)cc1-c1ccccc1` [Compound 7, 1-(5-((5-chloro-4-(6-methyl-[1,1′-biphenyl]-3-yl)pyrimidin-2-yl)amino)pyridin-3-yl)pyrrolidin-2-one]: the IC50 was less than 500 nM. Consider `COc1ccc(-c2nc(Nc3cncc(N4CCCC4=O)c3)ncc2Cl)cc1-c1ccccc1` [Compound 8, 1-(5-((5-chloro-4-(6-methoxy-[1,1′-biphenyl]-3-yl)pyrimidin-2-yl)amino)pyridin-3-yl)pyrrolidin-2-one], for which the IC50 was less than 500 nM. In the case of `O=C1CCCN1c1cncc(Nc2ncc(Cl)c(-c3cccc(-c4ccccn4)c3)n2)c1` [Compound 9, 1-(5-((5-chloro-4-(3-(pyridin-2-yl)phenyl)pyrimidin-2-yl)amino)pyridin-3-yl)pyrrolidin-2-one], the IC50 was less than 500 nM.

Turning to `Cc1ccc(-c2ccccc2)cc1-c1nc(Nc2cncc(N3CCCC3=O)c2)ncc1Cl` [Compound 10, 1-(5-((5-chloro-4-(4-methyl-[1,1′-biphenyl]-3-yl)pyrimidin-2-yl)amino)pyridin-3-yl)pyrrolidin-2-one], the IC50 was less than 500 nM.

With `Cc1cc(-c2ccccc2)cc(-c2nc(Nc3cncc(N4CCCC4=O)c3)ncc2Cl)c1` [Compound 11, 1-(5-((5-chloro-4-(5-methyl-[1,1′-biphenyl]-3-yl)pyrimidin-2-yl)amino)pyridin-3-yl)pyrrolidin-2-one], the IC50 was less than 500 nM. Next, `O=C1CCCN1c1cncc(Nc2ncc(Cl)c(-c3cccc(C4CC4)c3)n2)c1` [Compound 12, 1-(5-((5-chloro-4-(3-cyclopropylphenyl)pyrimidin-2-yl)amino)pyridin-3-yl)pyrrolidin-2-one]: less than 500 nM; `O=C1CCCN1c1cncc(Nc2ncc(Cl)c(-c3ccc(C4CC4)cc3)n2)c1` [Compound 13, 1-(5-((5-chloro-4-(4-cyclopropylphenyl)pyrimidin-2-yl)amino)pyridin-3-yl)pyrrolidin-2-one]: less than 500 nM.

`O=C1CCCN1c1cncc(Nc2ncc(Cl)c(-c3cccc(-c4ccccc4Cl)c3)n2)c1` [Compound 14, 1-(5-((5-chloro-4-(2′-chloro-[1,1′-biphenyl]-3-yl)pyrimidin-2-yl)amino)pyridin-3-yl)pyrrolidin-2-one]: the IC50 is less than 500 nM. Next, `Cc1ccccc1-c1cccc(-c2nc(Nc3cncc(N4CCCC4=O)c3)ncc2Cl)c1` [Compound 15, 1-(5-((5-chloro-4-(2′-methyl-[1,1′-biphenyl]-3-yl)pyrimidin-2-yl)amino)pyridin-3-yl)pyrrolidin-2-one]: less than 500 nM. For the molecule `O=C1CCCN1c1cncc(Nc2ncc(Cl)c(-c3cccc(-c4cccnc4)c3)n2)c1` [Compound 16, 1-(5-((5-chloro-4-(3-(pyridin-3-yl)phenyl)pyrimidin-2-yl)amino)pyridin-3-yl)pyrrolidin-2-one], the IC50 is less than 500 nM.

Consider `O=C1CCCN1c1cncc(Nc2ncc(Cl)c(-c3cccc(-c4cnccn4)c3)n2)c1` [Compound 17, 1-(5-((5-chloro-4-(3-(pyrazin-2-yl)phenyl)pyrimidin-2-yl)amino)pyridin-3-yl)pyrrolidin-2-one], for which the IC50 was less than 500 nM. Next, `COc1cc(-c2ccccc2)cc(-c2nc(Nc3cncc(N4CCCC4=O)c3)ncc2Cl)c1` [Compound 18, 1-(5-((5-chloro-4-(5-methoxy-[1,1′-biphenyl]-3-yl)pyrimidin-2-yl)amino)pyridin-3-yl)pyrrolidin-2-one]: less than 500 nM; `O=C1CCCN1c1cncc(Nc2ncc(Cl)c(-c3cccc(C4CCCCC4)c3)n2)c1` [Compound 19, 1-(5-((5-chloro-4-(3-cyclohexylphenyl)pyrimidin-2-yl)amino)pyridin-3-yl)pyrrolidin-2-one]: less than 500 nM; `O=C1CCCN1c1cncc(Nc2ncc(Cl)c(-c3cc(-c4ccccc4)ccc3Cl)n2)c1` [Compound 20, 1-(5-((5-chloro-4-(4-chloro-[1,1′-biphenyl]-3-yl)pyrimidin-2-yl)amino)pyridin-3-yl)pyrrolidin-2-one]: less than 500 nM. Next, `COc1ccc(-c2ccccc2)cc1-c1nc(Nc2cncc(N3CCCC3=O)c2)ncc1Cl` [Compound 21, 1-(5-((5-chloro-4-(4-methoxy-[1,1′-biphenyl]-3-yl)pyrimidin-2-yl)amino)pyridin-3-yl)pyrrolidin-2-one]: less than 500 nM; `O=C1CCCN1c1cncc(Nc2ncc(Cl)c(-c3cc(Cl)cc(-c4ccccc4)c3)n2)c1` [Compound 22, 1-(5-((5-chloro-4-(5-chloro-[1,1′-biphenyl]-3-yl)pyrimidin-2-yl)amino)pyridin-3-yl)pyrrolidin-2-one]: less than 500 nM; `O=C1CCCN1c1cncc(Nc2ncc(Cl)c(N3CCCC(c4ccccc4)C3)n2)c1` (stereo not drawn) [Compound 24, 1-(5-((5-chloro-4-(3-phenylpiperidin-1-yl)pyrimidin-2-yl)amino)pyridin-3-yl)pyrrolidin-2-one]: less than 500 nM.

A word on the IC50: it is the concentration needed to halve the response being measured.

The values are drawn from patent US20260184691A1, “INHIBITORS AND DEGRADERS OF PIP4K PROTEIN” (Larkspur Biosciences, Inc., priority 2022, published 2026).
